Literature values, collected in patent publication US7767860B2, “Substituted amino alcohols” (Auspex Pharmaceuticals, Inc, priority 2007, dated 2010).

Tested on: Mycobacterium tuberculosis
Details: fold more potent; Hausler et al 2001; Stauffer et al 2002

CC[C@@H](CO)NCCN[C@@H](CC)CO [Ethambutol, 2-[2-(1-hydroxybutan-2-ylamino)ethylamino]butan-1-ol]
potency of the (S,S)-enantiomer relative to the (R,R)-enantiomer and the meso-isomer: 200-500 times
